PMC5298231, “The Malaria Parasite's Lactate Transporter PfFNT Is the Target of Antiplasmodial Compounds Identified in Whole Cell Phenotypic Screens” (PLoS Pathogens, 2017)
“And” between values parts separate entries of the source, which are not always exact repeats. Equal entries are not always repeated. Structures can show the parent of a compound that is named as a salt. Peptide text beside a SMILES is read from it.

Test system: erythrocytes infected with 3D7 trophozoites
Assay type: cell-based, Plasmodium falciparum
Settings: sheet Ratio; for Ratio of metabolite abundance, Exp1_1hr: Exp1, 1hr; for Ratio of metabolite abundance, Exp1_3hr: Exp1, 3hr; for Ratio of metabolite abundance, Exp1_6hr: Exp1, 6hr; for Ratio of metabolite abundance, Exp2_1hr: Exp2, 1hr; for Ratio of metabolite abundance, Exp2_3hr: Exp2, 3hr; for Ratio of metabolite abundance, Exp2_6hr: Exp2, 6hr; for Ratio of metabolite abundance, Exp3_1hr: Exp3, 1hr; for Ratio of metabolite abundance, Exp3_3hr: Exp3, 3hr; for Ratio of metabolite abundance, Exp3_6hr: Exp3, 6hr

Structure (SMILES) | Ratio of metabolite abundance, Exp1_1hr | Ratio of metabolite abundance, Exp1_3hr | Ratio of metabolite abundance, Exp1_6hr | Ratio of metabolite abundance, Exp2_1hr | Ratio of metabolite abundance, Exp2_3hr | Ratio of metabolite abundance, Exp2_6hr | Ratio of metabolite abundance, Exp3_1hr | Ratio of metabolite abundance, Exp3_3hr | Ratio of metabolite abundance, Exp3_6hr
O=c1ccn([C@@H]2O[C@H](COP(=O)(O)O)[C@@H](O)[C@H]2O)c(=O)[nH]1 [UMP] | 0.9634 | 0.9303 | 0.812 | 0.4945 | 0.6514 | 1.0366 | 0.9925 | 0.9562 | 0.9948
O=C(O)[C@H](O)[C@@H](O)[C@H](O)[C@H](O)COP(=O)(O)O [6-Phospho-D-gluconate] | 1.0502 and 0.8295 | 0.8826 and 0.6724 | 0.7609 and 0.6355 | 0.8989 and 0.6621 | 0.8049 and 0.5841 | 0.8315 and 0.5366 | 0.955 and 0.8159 | 0.8757 and 0.6904 | 0.7181 and 0.6347
Nc1ncnc2c1ncn2[C@@H]1O[C@H](COP(=O)(O)OP(=O)(O)O)[C@@H](O)[C@H]1O [ADP] | 0.7745 | 0.4477 | 0.5852 | 1.167 | 0.7455 | 0.8713 | 0.9108 | 0.6751 | 1.045
NC(=O)c1ccc[n+]([C@@H]2O[C@H](COP(=O)([O-])OP(=O)(O)OC[C@H]3O[C@@H](n4cnc5c(N)ncnc54)[C@H](O)[C@@H]3O)[C@@H](O)[C@H]2O)c1 [NAD+] | 1.033 | 0.9084 | 1.09 | 0.9571 | 1.088 | 1.117 | 1.081 | 1.082 | 1.084
CC(C)C[C@H](NC(=O)[C@@H](NC(=O)[C@H](C)N)[C@@H](C)O)C(=O)N[C@@H](CO)C(=O)O [ATLS] (H-ATLS-OH) | 1.05 | 0.6654 | 0.8386 | 1.031 | 0.8993 | 0.9335 | 1.05 | 1.026 | 0.9156
O=C(O)CCC(=O)C(=O)O [2-Ketoglutarate] | 0.5638 | 0.5076 | 0.5229 | 1.061 | 0.5178 | 0.7675 | 0.6752 | 0.6868 | 0.9353
O=C1O[C@H]([C@H](O)CO)[C@H](O)[C@H]1O [D-Glucono-1-4-lactone] | 3.064 | 5.2964 | 6.162 | 1.636 | 4.1814 | 4.766 | 5.473 | 2.843 | 3.44
O=P(O)(O)OC[C@H]1O[C@](O)(COP(=O)(O)O)[C@@H](O)[C@@H]1O [Fructose-1-6-bisphosphate] | 2.629 | 3.883 | 1.856 | 2.007 | 1.872 | 1.498 | 1.953 | 1.49 | 0.822
NC(=O)C1=CN([C@@H]2O[C@H](COP(=O)(O)OP(=O)(O)OC[C@H]3O[C@@H](n4cnc5c(N)ncnc54)[C@H](O)[C@@H]3O)[C@@H](O)[C@H]2O)C=CC1 [NADH] | 0.4095 | 0.2777 | 0.1491 | 0.4801 | 0.5784 | 0.1509 | 0.301 | 0.1742 | 0.1364
CC(C)[C@H](NC(=O)[C@@H](N)Cc1c[nH]cn1)C(=O)N[C@@H](CC(=O)O)C(=O)N[C@@H](CC(=O)O)C(=O)O [HVDD] (H-HVDD-OH) | 0.5307 | 0.3298 | 0.7281 | 0.7593 | 0.3961 | 1.162 | 0.6174 | 0.4236 | 1.2463
CC(C)CCC[C@@H](C)[C@H]1CC[C@H]2[C@@H]3CC=C4C[C@@H](OS(=O)(=O)O)CC[C@]4(C)[C@H]3CC[C@]12C [Cholesteryl sulfate] | 0.8398 | 0.919 | 0.8716 | 0.7894 | 1.057 | 0.9329 | 0.813 | 0.7802 | 0.8279
C[C@H](NC(=O)[C@@H]1CCCN1)C(=O)N[C@@H](CCC(=O)O)C(=O)N[C@@H](Cc1ccccc1)C(=O)O [PAEF] (H-PAEF-OH) | 0.6152 | 0.1924 | 1.448 | 0.9598 | 0.5962 | 1.961 | 0.6833 | 0.575 | 1.883
O=C(O)[C@H](O)COP(=O)(O)O [3-Phosho-D-glycerate] | 0.9975 | 1.1161 | 1.013 | 1.017 | 0.9815 | 1.001 | 0.9949 | 1.065 | 1.039
O=C(O)CC[C@H](NC(=O)[C@@H]1CCCN1)C(=O)O [PE] (H-Pro-Glu-OH) | 2.339 | 1.989 | 3.207 | 2.25 | 1.648 | 3.078 | 2.352 | 2.042 | 3.469
